The text below walks through data of patent US20260169012A1, “WHOLE BLOOD CONTROL SAMPLE SYSTEMS AND METHOD OF PREPARING AND USING THE SAME” (Perosphere Technologies Inc., priority 2020, published 2026).

Read-outs that look alike come from different tables or passages of the source.

For assay [1], the system named is surrogate whole blood control. The procedure:
Plasma was prepared by mixing sheep plasma and horse plasma at a mixing ratio of 1:9. Sheep fibrinogen solution (45.72 mg/mL in 20 mM sodium citrate-HCl, pH 7.4) was diluted to 40 mg/mL by saline. Plasma base was further prepared by mixing 77% (w/v) plasma and 23% (w/v) sheep fibrinogen solution (40 mg/mL). Whole blood control was prepared by resuspending 35% (w/v) 2% glutaraldehyde-fixed horse red blood cells in 65% (w/v) plasma base, with addition of rabbit brain cephalin to a final concentration of 0.144 mg/mL. The whole blood control was then freeze-thawed once and freeze-dried in glass vials. To test the effect of calcium chloride concentration in activation solution on clotting time, the freeze-dried surrogate whole blood control was reconstituted in a diluent solution to half of its original volume, incubated at room temperature for 6 minutes, and mixed by swirling the glass vial gently for an additional 1 minute. The control was then activated by addition of calcium chloride solution of varying concentrations at the volume ratio of 1:1, followed by six times of rapid inversion. The samples were tested on Perosphere Technologies' PoC Coagulometers immediately after activation.

Assay [2] deals with surrogate whole blood control. The assay is described as follows: Clotting time of surrogate whole blood control on PoC Coagulometer, benzamidine in activation solution (Example 4). On the set-up: species or system horse, sheep. The settings on record: for Clotting time: 22 mM CaCl2. The procedure:
Plasma was prepared by mixing sheep plasma and horse plasma at a mixing ratio of 1:9. Sheep fibrinogen solution (45.72 mg/mL in 20 mM sodium citrate-HCl, pH 7.4) was diluted to 40 mg/mL with saline. Plasma base was further prepared by mixing 77% (w/v) plasma and 23% (w/v) sheep fibrinogen solution (40 mg/mL). Whole blood control was prepared by resuspending 35% (w/v) 3% glutaraldehyde-fixed horse red blood cells in 65% (w/v) plasma base, with addition of rabbit brain cephalin to a final concentration of 0.144 mg/mL. The whole blood control was then freeze-thawed once and freeze-dried in glass vials. To test the effect of benzamidine concentration in activation solution on clotting time, the freeze-dried surrogate whole blood control was reconstituted in a diluent solution to half of its original volume, incubated at room temperature for 6 minutes, and mixed by swirling the glass vial gently for an additional 1 minute. The control was then activated by addition of an activation solution containing 22 mM CaCl2) and varying concentrations of benzamidine at the volume ratio of 1:1, followed by six times of rapid inversion. The samples were tested on Perosphere Technologies' PoC Coagulometers immediately after activation.

Assay [3] relates to surrogate whole blood control. The assay is described as follows: Clotting time of surrogate whole blood control on PoC Coagulometer, benzamidine in lyophilizate (Example 2). On the set-up: species or system horse, sheep. Conditions: for Clotting time: activated with 22 mM calcium chloride. The procedure: Plasma was prepared by mixing sheep plasma and horse plasma at a mixing ratio of 1:9. Sheep fibrinogen solution (45.72 mg/mL in 20 mM sodium citrate-HCl, pH 7.4) was diluted to 40 mg/mL with saline. Plasma base was further prepared by mixing 77% (w/v) plasma and 23% (w/v) sheep fibrinogen solution (40 mg/mL). Whole blood control was prepared by resuspending 35% (w/v) 2% glutaraldehyde-fixed horse red blood cells in 65% (w/v) plasma base, with addition of rabbit brain cephalin to a final concentration of 0.144 mg/mL. Benzamidine of varying concentrations were added to the preparation. The whole blood control was then freeze-dried in glass vials. To test the effect of benzamidine in lyophilizate on clotting time, the freeze-dried surrogate whole blood control was reconstituted in a diluent solution to half of its original volume, incubated at room temperature for 6 minutes, and mixed by swirling the glass vial gently for an additional 1 minute. The control was then activated by addition of 22 mM calcium chloride at the volume ratio of 1:1, followed by six times of rapid inversion. The samples were tested on Perosphere Technologies' PoC Coagulometers immediately after activation.

For `[Ca+2].[Cl-].[Cl-]` [CaCl2, calcium chloride], the Clotting time in assay [1] (CaCl2 concentration in activation solution 14 mM) came to 199.00 s; in assay [1] (CaCl2 concentration in activation solution 22 mM), 154.00 s; in assay [1] (CaCl2 concentration in activation solution 30 mM), 166.00 s; in assay [1] (CaCl2 concentration in activation solution 40 mM), 203.33 s.
In the case of `N=C(N)c1ccccc1` [Benzamidine, benzamidine], the “Response of clotting time to benzamidine concentration in activation solution” value in assay [2] (0-6.6 mM in activation solution, FIG. 2) is “linear response”. The Clotting time in assay [2] (benzamidine concentration in activation solution 1.1 mM) turned out to be 206.00 s; in assay [2] (benzamidine concentration in activation solution 2.2 mM) it was 249.00 s; in assay [2] (benzamidine concentration in activation solution 4.4 mM), 357.67 s; in assay [2] (benzamidine concentration in activation solution 6.6 mM), 422.50 s; in assay [3] (benzamidine concentration in lyophilizate 1.1 mM), 339.33 s; in assay [3] (benzamidine concentration in lyophilizate 2.2 mM), 495.00 s. The “Response of clotting time to benzamidine concentration in lyophilizate (dose-response curve)” value in assay [3] (0-2.2 mM in lyophilizate, FIG. 1) was “linear”.
